The term IC50 denotes the concentration that gives 50% inhibition. Higher therefore signals a need for much substance. By Papp A→B is commonly meant how fast a substance crosses the layer from the apical side. Low readings indicate poor permeation, high ones ready permeation.

For one series, the system named is 2,3-DPG blood levels. The series can be described thus: Phase 1: blood 2,3-DPG levels in SCD patients. In kind it is in vivo, human. On the procedure: In this study, SAD/MAD cohorts are randomized (3 to 1) to receive Compound 1 or placebo (P). Compound 1 was evaluated first in 4 healthy SAD cohorts and 4 healthy MAD (14-day dosing period) cohorts. Based on the safety, and PK/PD profile from HS, Compound 1 is then evaluated in 1 SCD SAD cohort and 2 SCD MAD cohorts. Specifically, based on the safety and pharmacokinetic/pharmacodynamics (PK/PD) profile in healthy volunteer studies, Compound 1 is evaluated in patients (pts) with SCD, first in a single dose (SD or SAD) cohort and then in multiple-dose (MD or MAD) cohorts (14-day and 12-week). Safety assessments include AEs, vital signs, ECGs and laboratory parameters. PK/PD blood sampling was performed on Day 1 (SAD/MAD) and Day 14 (MAD) and up to 72 h after the last dose and at the end-of-study visit. PD parameters included 2,3-DPG, ATP, and p50 in all cohorts with additional PD studies (including oxygen scan) performed only in the SCD cohorts. […]
The following table reports the mean percentage change in 2,3-DPG blood levels, relative to baseline, measured over time in SCD patients after a single dose of Compound 1 (700 mg):
The following table reports the mean percentage change in 2,3-DPG blood levels, relative to baseline, measured over time after the first dose on days 1 and 14 in SCD patients who received daily doses of Compound 1 (300 mg QD) for 14 days: […]

Series [1] is described as follows: Phase 1: safety, adverse events in SCD patients. Type of series: in vivo, human. On the procedure: All SCD patients who received a single 700 mg dose of Compound 1 or placebo were monitored for adverse events for 7 days. The incidence of treatment emergent adverse events (TEAEs) in SCD patients receiving Compound 1 (700 mg) or placebo are reported in Table 23. Six TEAEs were reported in 4 patients; all TEAEs were grade 1 and transient. Specifically, six TEAEs were reported in 4 of 7 (57%) patients, including 3 TEAEs (arthralgia, headache, palpitations) in 2 of 5 (40%) pts receiving Compound 1 and 3 TEAEs (back pain, myalgia, pruritis) in 2 of 2 (100%) pts receiving placebo; all TEAEs were grade 1 and transient. […] One possibly related TEAE (palpitations) occurred about 8 hours post dose. No other symptoms were observed, and the palpitations resolved in <1 minute. […] The single 700 mg dose of Compound 1 was considered tolerable, and the first multiple dose SCD cohort was initiated.
Based on data from the MAD1 (300 mg once daily for 14 days), Compound 1 is well-tolerated in patients with SCD. In all, eighteen TEAEs were reported in 7 of 9 patients in the MAD1 (300 mg once daily) cohort (N=9). These included (a) eight Grade 1 TEAEs, including 3 patients c/o headache, 1 each of nausea, constipation, somnolence, increased LDH and increased AST, of which two AEs considered to be possibly related to study treatment were reported by one patient each (1 AE of headache and 1 AE of nausea); (b) six Grade 2 TEAEs, including 3 uncomplicated sickle pain events (in 2 patients), 1 patient with N/V and 1 increased reticulocytes, of which no AEs were considered related to study treatment, all AEs of pain events were considered unrelated and consistent with each patient's SCD pain history, and all AEs were treated with patient's standard home pain medications (no SAE/no hospitalization); and (c) one Grade 4 TEAE of elevated creatine kinase, unrelated to study treatment. Non-treatment-related AEs were consistent with events experienced in this patient population. No treatment-related serious AEs were reported.

The target in a further series is T1, CYP2C9 (Homo sapiens, UniProt P11712).
T1 construct: from tissue; host or cells: human liver microsomes
The series can be described thus: Single substrate DDI assay, reversible CYP inhibition in human liver microsomes. Type of series: in vitro ADME. A general note: Liver microsomes are vesicles of endoplasmic reticulum, rich in cytochrome P450 enzymes.

The next series has as its system CYP3A4. The series can be described thus: CYP mRNA induction in cultured human hepatocytes. Type of series: in vitro ADME. The following applies: donors, HCS-40 individually.
The next series is described as follows: Permeability Papp (A-B). Type of series: in vitro ADME. The following applies: not told.
A further series has as its target T2, aromatase (Homo sapiens, UniProt P11511).
T2 sequence (P11511 1-503): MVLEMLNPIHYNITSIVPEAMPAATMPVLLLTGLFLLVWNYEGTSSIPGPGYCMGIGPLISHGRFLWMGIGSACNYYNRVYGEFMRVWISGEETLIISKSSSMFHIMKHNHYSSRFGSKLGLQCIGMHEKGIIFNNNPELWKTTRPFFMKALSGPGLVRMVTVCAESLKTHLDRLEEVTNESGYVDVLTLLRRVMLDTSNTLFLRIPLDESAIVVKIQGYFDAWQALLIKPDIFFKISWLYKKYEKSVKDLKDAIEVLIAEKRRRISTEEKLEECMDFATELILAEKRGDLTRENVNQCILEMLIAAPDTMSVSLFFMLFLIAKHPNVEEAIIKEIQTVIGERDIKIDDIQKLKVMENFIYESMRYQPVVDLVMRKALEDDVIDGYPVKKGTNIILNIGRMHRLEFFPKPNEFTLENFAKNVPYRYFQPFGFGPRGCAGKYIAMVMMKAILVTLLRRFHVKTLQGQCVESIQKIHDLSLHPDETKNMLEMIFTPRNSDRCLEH
The series can be described thus: Aromatase inhibition. Particulars: non-clinical testing.

Setting [2] is: SCD MAD1, 300 mg × 14 days, n = 7.

“And” between values parts separate entries of the source, which are not always exact repeats. Equal entries are not always repeated.

T1 sequence (P11712 whole entry): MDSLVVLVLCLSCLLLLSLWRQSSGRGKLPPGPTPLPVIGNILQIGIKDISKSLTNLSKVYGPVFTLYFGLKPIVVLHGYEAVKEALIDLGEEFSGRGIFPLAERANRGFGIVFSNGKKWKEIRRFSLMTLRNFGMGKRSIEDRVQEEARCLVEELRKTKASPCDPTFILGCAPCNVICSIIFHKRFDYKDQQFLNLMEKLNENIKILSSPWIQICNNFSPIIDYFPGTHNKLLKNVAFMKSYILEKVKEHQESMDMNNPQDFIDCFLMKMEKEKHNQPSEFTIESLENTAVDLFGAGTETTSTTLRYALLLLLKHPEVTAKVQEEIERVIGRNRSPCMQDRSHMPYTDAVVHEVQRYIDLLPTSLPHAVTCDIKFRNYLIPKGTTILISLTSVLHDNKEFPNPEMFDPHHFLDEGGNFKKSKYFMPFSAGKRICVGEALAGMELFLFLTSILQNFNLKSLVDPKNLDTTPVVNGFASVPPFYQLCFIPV

Turning to `O=C([C@H](CO)c1ccccc1)N1CC2=C(C1)CN(S(=O)(=O)c1cnc3c(c1)OCCO3)C2` (single isomer, unassigned) [Compound 1], the “Mean percentage change in 2,3-DPG blood levels” value with 2,3-DPG blood levels (SCD patients, single dose 700 mg, 0 h after dose) was −0%. In addition, in the series with 2,3-DPG blood levels (SCD, single 700 mg dose (FIG. 54B)), the “lag of maximum 2,3-DPG decrease behind maximum plasma concentration” value is recorded as “about 24 hours”. For the same molecule, the “Any serious adverse event (SAE), n (%)” value in series [1] (setting [2]) is 0 n (%). Besides, the “TEAE related to study drug, n (%)” value in series [1] (setting [2]) is 2 (29%) n (%); in series [1] (SCD, single dose 700 mg, N = 5), 1 (20) n (%). The “serious adverse events or TEAEs leading to withdrawal” value in series [1] (SCD single dose cohort) was “No serious adverse events (SAEs) or TEAEs leading to pt withdrawal”. In addition, the “Any TEAE, n (%)” value in series [1] (SCD, single dose 700 mg, N = 5) was 2 (40) n (%). This molecule came in with an IC50 against CYP2C9 greater than 30 µM. The “mRNA Fold Induction CYP3A4” value with CYP3A4 (0.033 μM) is 0.940 fold and 1.09 fold and 1.25 fold; with CYP3A4 (0.1 μM), 1.13 fold and 0.875 fold and 0.889 fold; in the series with CYP3A4 (0.33 μM) it was 1.11 fold and 1.18 fold and 0.836 fold; in the series with CYP3A4 (1 μM), 1.41 fold and 1.07 fold and 1.18 fold; with CYP3A4 (3.3 μM), 1.84 fold and 1.25 fold and 1.62 fold; in the series on CYP3A4 (10 μM), 3.60 fold and 2.23 fold and 1.29 fold. In “Permeability Papp (A-B)”, this molecule returned a Papp A→B of 54.6 nm/s. Further, on aromatase, the aromatase inhibition result is listed as “absence of aromatase inhibition”.

The values are drawn from patent publication US20220087983A1, “ACTIVATING PYRUVATE KINASE R” (FORMA Therapeutics, Inc., priority 2020, published 2022).
